{"source": "paper PMC11597048", "about": "“M2e-Derived Peptidyl and Peptide Amphiphile Micelles as Novel Influenza Vaccines” (Pharmaceuticals, 2024)", "key": {"[1]": {"test_system": "bone marrow-derived dendritic cells (BMDCs)", "assay": "BMDC cytokine secretion (sandwich ELISA of supernatant)", "assay_type": "cell-based, BALB/c mice", "details": "24 h treatment, 0.2 μM Pam2CSK4, supernatant ELISA", "protocol": "Bone marrow was harvested from the femurs and tibias of 4-month-old BALB/c mice and red blood cells were lysed using ammonium-chloride-potassium (ACK) lysing buffer. Bone marrow cells were cultured in complete RPMI media (i.e., 10% FBS, 100 U/mL penicillin, 100 μg/mL streptomycin, and 50 μM β-mercaptoethanol) with 20 ng/mL granulocyte-macrophage colony-stimulating factor (GM-CSF) to promote differentiation into bone marrow-derived dendritic cells (BMDCs). After 10 days, BMDCs were plated in untreated 24-well plates and cultured with peptide or PA for 24 h. Supernatants were collected and stored at −20 °C for later use. BMDCs were harvested and processed for flow cytometry analysis. More specifically, cells were removed from the plate, blocked with Trustain FcX anti-mouse CD16/32 antibody (BioLegend), then stained with phycoerythrin-Cyaninine7 (PE-Cy7) anti-mouse CD11c (BioLegend), fluorescein isothiocyanate (FITC) anti-mouse CD40 (BioLegend), and allophycocyanin (APC) anti-mouse MHC II (BioLegend) before being fixed with 4% para-formaldehyde. Cells were analyzed on a BD LSR Fortessa Flow Cytometer (Franklin Lakes, NJ, USA) within 48 h after fixation. Events were gated according to the strategy shown in Figure S2, with viable samples having a “valid cells” gate of at least 45% of the total events. […]"}, "[2]": {"assay": "Transmission electron microscopy of micelles", "assay_type": "physicochemical", "details": "20 μM peptide or PA with or without 2.22 μM Pam2CSK4 (90/10) in PBS, Nano-W negative stain", "protocol": "Solutions of 20 μM peptide or PA with or without 2.22 μM Pam2CSK4 were prepared in PBS from which 5 μL was pipetted onto a carbon-coated copper transmission electron microscopy (TEM) grid and incubated for 3–5 min before excess solution was wicked away using filter paper. Then, 5 μL Nano-W (2% methylamine tungstate) was pipetted on the grid and incubated for 3–5 min before being removed by wicking. Grids were imaged using a JEOL JEM-1400 Transmission Electron Microscope (Tokyo, Japan) at 15,000× and 25,000× magnification. Micrographs of peptide or PA were compared against reference micrographs of Nano-W with or without PBS to ensure proper identification of micellar structures."}}, "data": [{"substance": "Pam2CSK4", "values": [{"measurement": "IL-12/IL-23 (p40) secretion", "setting": "[1]", "result": "higher production"}, {"measurement": "TNF-α secretion", "setting": "[1]", "result": "higher production"}, {"measurement": "Micelle morphology (TEM)", "setting": "[2]", "result": "mostly small spherical micelles"}]}]}
